The text below walks through data of US20040267017A1, “3-pyridyl or 4-isoquinolinyl thiazoles as c17, 20 lyase inhibitors” (priority 2001, published 2004).

Where two headings read alike, the source gives them in different places.

Data set [1] addresses T1, Recombinant murine C17,20 lyase (mLyase) (Mus musculus, UniProt P27786).
T1 construct: made in house; host or cells: Sf9 insect cells (baculovirus), by analogy ('in a similar manner'); enriched microsomes
T1 sequence (P27786 1-507): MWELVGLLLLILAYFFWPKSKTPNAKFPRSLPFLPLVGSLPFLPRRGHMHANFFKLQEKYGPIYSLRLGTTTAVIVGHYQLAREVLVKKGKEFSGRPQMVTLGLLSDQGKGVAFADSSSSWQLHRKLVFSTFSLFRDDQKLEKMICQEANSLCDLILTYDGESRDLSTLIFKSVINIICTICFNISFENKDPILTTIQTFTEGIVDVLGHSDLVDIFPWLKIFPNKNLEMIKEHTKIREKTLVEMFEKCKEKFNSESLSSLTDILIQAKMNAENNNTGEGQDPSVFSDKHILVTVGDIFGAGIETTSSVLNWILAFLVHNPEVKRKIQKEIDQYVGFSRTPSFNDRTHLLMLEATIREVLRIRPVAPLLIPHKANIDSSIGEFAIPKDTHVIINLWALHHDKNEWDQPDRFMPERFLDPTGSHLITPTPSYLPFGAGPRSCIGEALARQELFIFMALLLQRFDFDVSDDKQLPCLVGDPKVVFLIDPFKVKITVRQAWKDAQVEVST
Kind of data set: Murine C17,20 lyase biochemical assay (DHEA formation, RIA/SPA, cytochrome b5 omitted). Conditions: Table V. The procedure:
Recombinant human C17,20 lyase (hLyase) was expressed in (Sf9) cells, and hLyase enriched microsomes were prepared from cultures as described in the following reference: Baculovirus Expression of Bovine P450 in Sf9 Cells and Comparison with Expression in Yeast, Mammalian Cells, and E. Coli. Barnes H. J.; Jenkins, C. M.; Waterman, M. R., Archives of Biochemistry and Biophysics (1994) 315(2)489-494. Recombinant murine C17,20 lyase (mLyase) was prepared in a similar manner. hLyase and mLyase preparations were titrated using assay conditions to determine protein concentrations to be used for assays. […]
(§1) Enzymatic reactions were allowed to run for 2 h at rt with gentle agitation. […] The concentration of DHEA generated by hLyase was determined by radioimmunoassay (RIA) as described below.
(§2) 0.08 μCi ^3H-DHEA (1.6 μCi/mL) (NEN (NET814)) in scintillation proximity assay (SPA) buffer (100 mM Tris-HCl, pH 7.5, 50 mM NaCl, 0.5% BSA (Sigma A9647), 0.2% Tween 20) was added to each well. […] Mixtures were allowed to equilibrate with gentle agitation for 1 h followed by an overnight equilibration with no agitation. ^3H-DHEA bound to the SPA beads was determined by scintillation counting.
The concentration of DHEA generated in each reaction was calculated from raw data (CPM) and the standard curve. […]

The next data set relates to powdery mildew. In words: Test against powdery mildew.
The target of data set [2] is T2, Recombinant human C17,20 lyase (hLyase) (Homo sapiens, UniProt P05093).
T2 construct: made in house; host or cells: Sf9 insect cells (baculovirus); hLyase-enriched microsomes
T2 sequence (P05093 1-508): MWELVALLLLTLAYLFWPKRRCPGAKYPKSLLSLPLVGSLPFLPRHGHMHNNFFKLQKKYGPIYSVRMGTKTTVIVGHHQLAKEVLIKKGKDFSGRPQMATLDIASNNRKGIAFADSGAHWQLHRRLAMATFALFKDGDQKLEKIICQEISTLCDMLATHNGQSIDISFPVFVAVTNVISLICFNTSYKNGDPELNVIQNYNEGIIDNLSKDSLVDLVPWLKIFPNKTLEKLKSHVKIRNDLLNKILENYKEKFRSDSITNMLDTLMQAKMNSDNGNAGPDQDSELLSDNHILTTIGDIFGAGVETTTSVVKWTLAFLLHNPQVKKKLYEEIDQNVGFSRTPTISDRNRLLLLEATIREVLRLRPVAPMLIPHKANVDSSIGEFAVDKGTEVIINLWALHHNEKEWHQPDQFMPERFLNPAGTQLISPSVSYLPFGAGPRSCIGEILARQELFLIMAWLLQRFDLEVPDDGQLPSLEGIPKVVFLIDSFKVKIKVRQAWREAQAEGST
In words: Human C17,20 lyase biochemical assay (DHEA formation, RIA/SPA). The protocol:
Recombinant human C17,20 lyase (hLyase) was expressed in (Sf9) cells, and hLyase enriched microsomes were prepared from cultures as described in the following reference: Baculovirus Expression of Bovine P450 in Sf9 Cells and Comparison with Expression in Yeast, Mammalian Cells, and E. Coli. Barnes H. J.; Jenkins, C. M.; Waterman, M. R., Archives of Biochemistry and Biophysics (1994) 315(2)489-494. Recombinant murine C17,20 lyase (mLyase) was prepared in a similar manner. hLyase and mLyase preparations were titrated using assay conditions to determine protein concentrations to be used for assays. Both mLyase and hLyase assays were run in an identical manner except that cytochrome b5 was omitted in the murine assays.
Test compounds were diluted […], serially in six steps, with 100% DMSO starting from 800 μM going to 51.2 nM reserving the first 2 columns for the generation of a standard curve. Each of these compound solutions in 100% DMSO was further diluted twenty fold in H2O to obtain compound concentrations ranging from 40 μM to 2.56 nM in 5% DMSO. […]
as §1, §2
The concentration of DHEA generated in each reaction was calculated from raw data (CPM) and the standard curve. The lyase inhibitory activity of each compound was determined as the concentration of DHEA generated in the presence of test compounds, expressed as a percent inhibition compared to the DHEA concentration generated in the absence of test compounds (1−(nM DHEA formed in the presence of test compound/nM DHEA formed in the absence of test compounds)×100).

Where [3] appears, read: read-out: inhibitory IC50 against C17,20 human lyase.

`Cl.Clc1ccc(-c2csc(-c3cnccc3Cl)n2)cc1` returned a melting point of 176.5 to 183.5 °C.
`Cc1ccncc1-c1nc(Cc2ccc(Cl)cc2)cs1.Cl` yielded a melting point of 165.5 to 170 °C.
For `Clc1ccc(-c2csc(-c3cccnc3)n2)c(Cl)c1` [2-(3-pyridyl)-4-(2,4-dichlorophenyl)thiazole, reference compound], the values for the IC50 in data set [1] and in data set [2] (setting [3]) were 1400 nM and 406 nM, respectively. Besides, in the data set with powdery mildew (*Statistically insignificant), the “% Inhibition against Powdery Mildew” value is 80%.
As to `Cc1ccncc1-c1nc(-c2ccc(Cl)cc2Cl)cs1` [2-[4-methyl-3-pyridyl)-4-(2,4-dichlorophenyl)thiazole], the half-inhibitory concentration (IC50) in data set [1] was 39.7 nM; in data set [2] (Table V, read-out: Human Lyase IC50), 15.1 nM; in data set [2] (setting [3]), 15 nM. For the same molecule, the “% Inhibition against Powdery Mildew” value in the data set with powdery mildew (*Statistically insignificant; listed as 2-[4-methyl-3-pyridyl)-4-(2,4dichlorophenyl)thiazole) is “devoid of activity”; in the data set with powdery mildew (*Statistically insignificant, listed as drawing 261) it was 10%*.
In turn, `Cc1sc(-c2cccnc2)nc1Nc1ccccc1` [Example 6] registered a melting point of 110 °C.

By melting point is commonly meant the temperature of the solid-liquid transition. Broadly, the IC50 is the concentration that inhibits the measured activity by half.
